The values that follow come from ChEMBL document CHEMBL1201862, “PubChem BioAssay data set” (2004).

Test systems include DU-145; UACC-62; K562; OVCAR-3; HT-29; SF-539; LOX IMVI; NCI-H522; EKVX; UACC-257; Hs-578T; CCRF-CEM; SW-620; A549; U-251; NCI/ADR-RES; UO-31; OVCAR-8; COLO 205.
What all share (assay): DTP human tumour cell line panel, 48 h

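Where inhibition never reached the appropriate level, the endpoint shown equals the highest concentration tested. Otherwise, values were interpolated linearly from a five-concentration, 48-hour dose response in 96-well plates. GI50 marks 50% less growth.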 Active and inactive are the calls of the source. No stated cut-off is given here; in the data, active = GI50 up to about 1.1 µM and inactive = higher. Where only a bound is given, the exact number is not on record here.

Turning to `NC(=O)NC(=O)C1CCCCC1C(=O)O` (stereo not given), the GI50 with DU-145 is > 100 µM (inactive); in the experiment with UACC-62 it was > 100 µM (inactive); in the experiment on K562, 5.11 µM (inactive); in the experiment on OVCAR-3 it was > 100 µM (inactive); in the experiment on HT-29 it was > 100 µM (inactive); with SF-539, > 100 µM (inactive). Moreover, the GI50 with LOX IMVI, in the experiment with NCI-H522, in the experiment with EKVX, in the experiment on UACC-257, with Hs-578T and with CCRF-CEM was > 100 µM (inactive) throughout. For the same compound, the GI50 in the experiment on SW-620, with A549, in the experiment with U-251, with NCI/ADR-RES, in the experiment on UO-31 and with OVCAR-8 was > 100 µM (inactive) each time. Besides, the GI50 with COLO 205 was > 100 µM (inactive).

On to `Cc1ccc(S(=O)(=O)NC(=O)NC(CCC(N)=O)C(=O)O)cc1` (stereo not given), for which the GI50 in the experiment with DU-145, with UACC-62, in the experiment with K562, with HT-29, in the experiment on SF-539 and in the experiment on LOX IMVI was > 100 µM (inactive) each time. For the same compound, the GI50 in the experiment on NCI-H522, in the experiment on UACC-257, in the experiment with Hs-578T, in the experiment with CCRF-CEM, in the experiment with SW-620 and in the experiment on A549 was > 100 µM (inactive) each time. Further, the GI50 in the experiment on U-251, in the experiment on NCI/ADR-RES, in the experiment on UO-31, in the experiment on OVCAR-8 and with COLO 205 was > 100 µM (inactive) throughout.

Turning to `COc1ccc2c3c1O[C@H]1[C@@H](O)CC[C@@]4(O)[C@@H](C2)N(C)CC[C@]314`, the GI50 in the experiment on DU-145, in the experiment with UACC-62, in the experiment on K562, in the experiment with OVCAR-3, with HT-29 and with SF-539 was > 100 µM (inactive) in each case. Further, the GI50 in the experiment with LOX IMVI, with NCI-H522, with EKVX, in the experiment with UACC-257, in the experiment on Hs-578T and in the experiment with CCRF-CEM was > 100 µM (inactive) in each case. For the same compound, the GI50 with SW-620, in the experiment with A549, in the experiment with U-251, in the experiment on NCI/ADR-RES, in the experiment on UO-31 and with OVCAR-8 was > 100 µM (inactive) in each case. The GI50 in the experiment on COLO 205 was > 100 µM (inactive).

Take `C/C(=N\n1c(Cc2ccccc2)n[nH]c1=O)c1ccccc1`: the GI50 with DU-145, with UACC-62, in the experiment on K562, with HT-29, in the experiment on SF-539 and with LOX IMVI was > 100 µM (inactive) in each case. The GI50 is > 100 µM (inactive) with NCI-H522; 94.4 µM (inactive) with EKVX; > 100 µM (inactive) in the experiment with UACC-257; > 100 µM (inactive) in the experiment with Hs-578T; > 100 µM (inactive) with CCRF-CEM; > 100 µM (inactive) in the experiment with SW-620. Further, the GI50 in the experiment with A549, in the experiment on U-251, in the experiment on NCI/ADR-RES, with UO-31, in the experiment on OVCAR-8 and with COLO 205 was > 100 µM (inactive) throughout.

For the compound `C/C=C/C=C\C=C/C(O)C(C)C(CCC(C)C1OC(=O)C=CC1C)OP(=O)(O)O` (stereo not given), the GI50 in the experiment with DU-145 is 0.399 µM (active); with UACC-62, 0.319 µM (active); in the experiment with K562, 0.183 µM (active); in the experiment with OVCAR-3 it was 0.182 µM (active); in the experiment on HT-29 it was 0.376 µM (active); with SF-539, 0.461 µM (active). Also, the GI50 with LOX IMVI is 0.314 µM (active); in the experiment with NCI-H522 it was 1.35 µM (inactive); with EKVX it was 0.447 µM (active); in the experiment with UACC-257, 1.15 µM (inactive); in the experiment on Hs-578T it was 1.42 µM (inactive); in the experiment on CCRF-CEM it was 0.243 µM (active). In addition, the GI50 is 0.479 µM (active) with SW-620; 0.538 µM (active) with A549; 0.893 µM (active) with U-251; 0.897 µM (active) in the experiment with NCI/ADR-RES; 0.399 µM (active) in the experiment with UO-31; 0.451 µM (active) with OVCAR-8. Besides, in the experiment on COLO 205, the GI50 was 0.268 µM (active).

In the case of `CC(C)CC1[C@@H](OCc2ccccc2)COS(=O)(=O)N1Cc1ccccc1` (stereo not given in full), the GI50 in the experiment on DU-145 is > 100 µM (inactive); in the experiment on UACC-62, > 100 µM (inactive); in the experiment on K562, 50.9 µM (inactive); in the experiment with OVCAR-3 it was > 100 µM (inactive); in the experiment on HT-29, 38.9 µM (inactive); in the experiment with SF-539, > 100 µM (inactive). For the same compound, the GI50 is > 100 µM (inactive) in the experiment on LOX IMVI; 24.4 µM (inactive) in the experiment on NCI-H522; > 100 µM (inactive) with EKVX; > 100 µM (inactive) in the experiment on UACC-257; 14.7 µM (inactive) in the experiment with Hs-578T; > 100 µM (inactive) in the experiment on CCRF-CEM. The GI50 with SW-620 was > 100 µM (inactive); in the experiment with A549, 67.6 µM (inactive); with U-251, > 100 µM (inactive); with NCI/ADR-RES, 52.6 µM (inactive); in the experiment on UO-31 it was 27.2 µM (inactive); with OVCAR-8, > 100 µM (inactive). Further, the GI50 in the experiment with COLO 205 was > 100 µM (inactive).

Turning to `O=C(CCCN1CCC(O)(c2ccc(Cl)cc2)CC1)c1ccc(F)cc1` [HALOPERIDOL], the GI50 in the experiment with DU-145 is 85.1 µM (inactive); in the experiment with UACC-62 it was 2.31 µM (inactive); in the experiment on K562, > 100 µM (inactive); in the experiment with OVCAR-3, 18.3 µM (inactive); with HT-29 it was 18.8 µM (inactive); in the experiment on SF-539, 26.1 µM (inactive). Further, the GI50 in the experiment with LOX IMVI is 18 µM (inactive); in the experiment with NCI-H522 it was 20.6 µM (inactive); in the experiment on EKVX, 82.4 µM (inactive); in the experiment with UACC-257 it was 20.9 µM (inactive); in the experiment on Hs-578T it was 25.4 µM (inactive); with CCRF-CEM, 41.4 µM (inactive). The GI50 with SW-620 is 18.2 µM (inactive); in the experiment on A549, 42.8 µM (inactive); in the experiment on U-251, 20.7 µM (inactive); in the experiment on NCI/ADR-RES, 30.1 µM (inactive); in the experiment with UO-31, 15.7 µM (inactive); with OVCAR-8, 32.7 µM (inactive). Further, the GI50 in the experiment with COLO 205 is 18.6 µM (inactive).

For `COc1cc2nc(-c3cccs3)oc(=O)c2cc1OC`, the GI50 in the experiment on DU-145 was > 100 µM (inactive); with UACC-62, > 100 µM (inactive); in the experiment on K562, > 100 µM (inactive); with OVCAR-3 it was > 100 µM (inactive); in the experiment on HT-29, > 100 µM (inactive); with SF-539, 57.3 µM (inactive). In addition, the GI50 was > 100 µM (inactive) in the experiment with LOX IMVI; > 100 µM (inactive) in the experiment with NCI-H522; > 100 µM (inactive) with EKVX; > 100 µM (inactive) in the experiment with UACC-257; 72.1 µM (inactive) with Hs-578T; > 100 µM (inactive) in the experiment on CCRF-CEM. For the same compound, the GI50 in the experiment with SW-620 was > 100 µM (inactive); with A549, > 100 µM (inactive); in the experiment on U-251, 38.5 µM (inactive); with NCI/ADR-RES, 51.2 µM (inactive); in the experiment with UO-31 it was > 100 µM (inactive); in the experiment with OVCAR-8, 53.1 µM (inactive). In addition, in the experiment with COLO 205, the GI50 was > 100 µM (inactive).

Regarding `CCOC(=O)C(C/C=C/CO)N(C)C(=O)OC(C)(C)C` (stereo not given), the GI50 in the experiment with DU-145 is > 100 µM (inactive); in the experiment on UACC-62, > 100 µM (inactive); with K562, 83.9 µM (inactive); with OVCAR-3 it was > 100 µM (inactive); in the experiment with HT-29 it was > 100 µM (inactive); in the experiment with SF-539, > 100 µM (inactive). In addition, the GI50 was > 100 µM (inactive) in the experiment on LOX IMVI; 10.1 µM (inactive) in the experiment on NCI-H522; > 100 µM (inactive) in the experiment with EKVX; > 100 µM (inactive) with UACC-257; 53.5 µM (inactive) in the experiment on Hs-578T; 28.1 µM (inactive) in the experiment on CCRF-CEM. Also, the GI50 in the experiment on SW-620, in the experiment with A549, in the experiment with U-251, in the experiment with NCI/ADR-RES, in the experiment on UO-31 and in the experiment on OVCAR-8 was > 100 µM (inactive) in each case. Also, the GI50 in the experiment with COLO 205 is > 100 µM (inactive).

With `Cc1ccc(C(=O)C2C=C(c3ccc(C)cc3)SC3C=CCC32)cc1` (stereo not given), the GI50 is 32.3 µM (inactive) with DU-145; 17.9 µM (inactive) in the experiment with UACC-62; 27.7 µM (inactive) in the experiment with K562; 17 µM (inactive) in the experiment with OVCAR-3; 21.4 µM (inactive) with HT-29; 17.9 µM (inactive) in the experiment on SF-539. Also, the GI50 was 18.4 µM (inactive) in the experiment on LOX IMVI; 15.3 µM (inactive) in the experiment with NCI-H522; 34.8 µM (inactive) with EKVX; 21.7 µM (inactive) in the experiment with UACC-257; 26.1 µM (inactive) in the experiment with Hs-578T; 13.6 µM (inactive) in the experiment on CCRF-CEM. The GI50 was 15.8 µM (inactive) in the experiment with SW-620; 22.9 µM (inactive) in the experiment on A549; 17.9 µM (inactive) in the experiment on U-251; 18.5 µM (inactive) in the experiment on NCI/ADR-RES; 16.1 µM (inactive) in the experiment with UO-31; 17 µM (inactive) in the experiment with OVCAR-8. Moreover, the GI50 in the experiment with COLO 205 was 22.1 µM (inactive).

In the case of `O=C(O)Cc1ccc(Nc2nc3ccccc3nc2C(=O)O)cc1`, the GI50 in the experiment on DU-145, in the experiment on UACC-62, in the experiment with OVCAR-3, with HT-29, with SF-539 and in the experiment with LOX IMVI was > 100 µM (inactive) in each case. Moreover, the GI50 in the experiment on NCI-H522, in the experiment with EKVX, in the experiment with UACC-257, with Hs-578T, in the experiment with CCRF-CEM and in the experiment with SW-620 was > 100 µM (inactive) in each case. For the same compound, the GI50 in the experiment with A549, with U-251, in the experiment on NCI/ADR-RES, in the experiment on UO-31, in the experiment with OVCAR-8 and with COLO 205 was > 100 µM (inactive) throughout.
